Assay type in all cases: cell-based, Drosophila
Test [1] concerns Hsp70. As to the kind of experiment: Induction of Hsp70 protein synthesis in cultured cells. Conditions: for optimal concentration for induction of Hsp70 protein synthesis: treated 60 minutes, no heat shock; for stimulation of Hsp70 protein synthesis: without cellular stress. The procedure:
FIG. 14. Induction of HSF DNA binding and hsp70 protein synthesis by ibuprofen and salicylic acid. The concentrations of ibuprofen and salicylic acid are shown as mM. Both DNA binding and Hsp70 protein synthesis follow the same optimal concentrations. The cells were treated for 60 minutes with the indicated drug and whole cell extracts prepared for analysis. […] The goal here is to activate HSF to produce adequate levels of Hsp70 that can provide neuroprotective functions to the human brain. To begin these studies, two common non-steroidal anti-inflammatory drugs (NSAIDs), ibuprofen and salicylic acid, were tested. These molecules have been previously shown to stimulate HSF DNA binding in mammalian and Drosophila cells. The findings presented here differ from those previously published. As reported here, both salicylic acid and ibuprofen can stimulate HSF DNA binding, Hsp70 transcription and Hsp70 protein synthesis. […] It is clear that both DNA binding and Hsp70 protein synthesis have identical optimums.

The test system of test [2] is Hsp70. In words: Hsp70 transcription, primer-extension analysis of isolated RNA. Conditions: for stimulation of Hsp70 transcription: without cellular stress. As for the experimental part: FIG. 15. Time course for Hsp70 transcription induction by 3 mM salicylic acid. Cells were treated with 3 mM salicylic acid and RNA was isolated at the indicated times.
Control cells (lanes 1 and 2) show activation of Hsp70 transcription as a result of a ten-minute heat shock. […] Lanes 3 and 4 contain RNA from KD cells with RNAi against Hsc4p. […] When Hsc4p levels are reduced, HSF is able to bind DNA and activate transcription without heat shock.

A further test deals with HSF. In words: HSF DNA binding activity, gel mobility shift assay (EMSA) with whole cell extracts and labeled HSE. Conditions: for optimal concentration for induction of HSF DNA binding: treated 60 minutes, no heat shock; for stimulation of HSF DNA binding: without cellular stress. The procedure:
FIG. 14. Induction of HSF DNA binding and hsp70 protein synthesis by ibuprofen and salicylic acid. The concentrations of ibuprofen and salicylic acid are shown as mM. Both DNA binding and Hsp70 protein synthesis follow the same optimal concentrations. The cells were treated for 60 minutes with the indicated drug and whole cell extracts prepared for analysis.
The effect of the KDs on DNA binding was first examined using the gel mobility shift assay. Briefly cells were treated with RNAi or transfected with the indicated DNA constructs and harvested four days later. Whole cell extracts were prepared and DNA binding carried out with a labeled heat shock element (HSE) double stranded oligonucleotide. Lanes 1 and 2 represent control cells, non-shocked and heat shocked, respectively. […] Lanes 3 and 4 contain extract derived from the Hsc3p KD cells.

The mark [3] stands for this setting: Drosophila cultured cells, 60 minutes.

Molecules are shown by their SMILES.

With `O=C(O)c1ccccc1O` [salicylic acid], the “low concentration that still functions for Hsp70 protein synthesis” value in the test with Hsp70 [1] (setting [3]) turned out to be 1 mM. Besides, the “optimal concentration for induction of Hsp70 protein synthesis” value with Hsp70 [1] (Drosophila cultured cells) is recorded as “quite broad”. In addition, the “stimulation of Hsp70 protein synthesis” value in the test on Hsp70 [1] is listed as “can stimulate”. In addition, the “time course of Hsp70 transcription induction” value in the test on Hsp70 [2] (3 mM salicylic acid) is reported as “induced rapidly”. Also, in the test with Hsp70 [2], the “stimulation of Hsp70 transcription” value is “can stimulate”. Also, in the test on HSF (setting [3]), the “low concentration that still functions for HSF DNA binding” value was determined as 1 mM. Besides, the “optimal concentration for induction of HSF DNA binding” value with HSF (Drosophila cultured cells) is given as “quite broad”. The “stimulation of HSF DNA binding” value with HSF was “can stimulate”.
For `CC(C)Cc1ccc(C(C)C(=O)O)cc1` (stereo not shown) [ibuprofen], in the test with Hsp70 [1] (Drosophila cultured cells), the “optimal concentration for induction of Hsp70 protein synthesis” value was 3 to 10 mM. Further, in the test with Hsp70 [1], the “stimulation of Hsp70 protein synthesis” value is “can stimulate”. Besides, the “stimulation of Hsp70 transcription” value in the test on Hsp70 [2] was “can stimulate”. Moreover, in the test with HSF (Drosophila cultured cells), the “optimal concentration for induction of HSF DNA binding” value is 3 to 10 mM. For the same compound, the “stimulation of HSF DNA binding” value in the test with HSF is on record as “can stimulate”.
